System: degenerating neurons (FJB-positive cells) in cortical contusion margin
Test: Neuronal degeneration, FluoroJade B (FJB) staining
Format: in vivo, rat
Settings: single-dose 30 mg kg^-1 i.p., 1 day post-injury, P<0.05
Description: A previously described CCI injury procedure was utilized (Chen et al., 2003). Male Sprague-Dawley rats, which have body weight of 250-300 g, were anaesthetized with sodium pentobarbital (i.p.; 50 mgkg^−1; Rhone Merieux, Harlow, UK) and placed in a stereotaxic frame. A 5-mm craniotomy was performed over the left parietal cortex, centered on the coronal suture and 3 mm lateral to the sagittal suture. Considerable care was taken to avoid injury to the underlying dura. Injury was made using a pneumatic piston with a rounded metal tip (2.5 mm diameter) that was angled 22.5° C. to the vertical so that the tip was perpendicular with the brain surface at the centre of the craniotomy. A velocity of 4 ms^−1 and a deformation depth 2 mm below the dura were used. The bone flap was immediately replaced and sealed, and the scalp was closed with sutures. Body temperature was monitored throughout the surgery by a rectal probe; temperature was maintained at 37.0±0.5° C. using a heated pad. […] Testing after injury was as follows: (1) real-time quantitative RT-PCR analysis for TNF-α, IL-1β and IL-6 mRNA expression at 6 h post-injury (n=7 for each group); (2) FluoroJade B (FJB) staining, TNF-α, IL-1β and IL-6 immunohistochemistry, as well as ELISA at 24 h post-injury to assess degenerative neurons and to determine cytokine expression (n=7 for each group). […]

SMILES: O=c1cc(-c2ccccc2)oc2cc(O)c(O)c(O)c12 [baicalein]
- reduction of the number of FJB-positive cells versus vehicle: 31%

Source: patent US20100222421A1, “Usage of Baicalein in the Preparation of a Pharmaceutical Composition for the Treatment of Traumatic Brain Injury” (National Defense Medical Center, priority 2009, published 2010)
